Reference: patent publication US9681664B2, “Macrocyclic picolinamides as fungicides” (Dow Agrosciences LLC, priority 2012, dated 2017)
Read-outs that look alike come from different tables or passages of the source.

Columns and labels:
[1] = test system: Mycosphaerella graminicola; Anamorph: Septoria tritici; experiment: Leaf blotch of wheat (SEPTTR) disease control on wheat seedlings; assay type: in vivo; conditions: Zymoseptoria tritici; for pest or weed control at 121.5 g/ha: low volume application, 121.5 g/H
Outline: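 Protective or curative format: Septoria tritici inoculation either preceded or followed fungicide application to first-leaf Yuma wheat. Severity scored 0–100%; control expressed versus untreated.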

[2] = test system: Puccinia triticina; Synonym: Puccinia recondite f. sp. tritici; experiment: Wheat brown rust (PUCCRT) disease control on wheat seedlings; assay type: in vivo; conditions: Puccinia triticina; for pest or weed control at 121.5 g/ha: low volume application, 121.5 g/H
Outline: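 Yuma wheat grown to first fully emerged leaf was inoculated with Puccinia triticina spore suspension either before or after fungicide treatment, held overnight at 22° C. and 100% RH in darkness, then kept at 24° C. Fungicide applied by booth sprayer to run-off (acetone/water, 110 ppm Triton X-100) or as EC by track spray.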

[3] = 24 h, Wheat Leaf Blotch, 1 Day Protectant, high volume application, read-out: Disease Control SEPTTR 1 DP 100 ppm
[4] = 72 h, Wheat Leaf Blotch, 3 Day Curative, high volume application, read-out: Disease Control SEPTTR 3 DC 100 ppm
[5] = 24 h, Wheat Brown Rust, 1 Day Protectant, high volume application, read-out: Disease Control PUCCRT 1 DP 100 ppm
[6] = 72 h, Wheat Brown Rust, 3 Day Curative, high volume application, read-out: Disease Control PUCCRT 3 DC 100 ppm
[7] = 24 h, Wheat Leaf Blotch, 1 Day Protectant, read-out: Disease Control SEPTTR 1 DP 121.5 g/H
[8] = 72 h, Wheat Leaf Blotch, 3 Day Curative, read-out: Disease Control SEPTTR 3 DC 121.5 g/H
[9] = 24 h, Wheat Brown Rust, 1 Day Protectant, read-out: Disease Control PUCCRT 1 DP 121.5 g/H
[10] = 72 h, Wheat Brown Rust, 3 Day Curative, read-out: Disease Control PUCCRT 3 DC 121.5 g/H

Row | SMILES | pest or weed control at 100 ppm ([1]; 24 h, High volume application, 1 Day Protectant, read-out: SEPTTR 1DP disease control) [%] | pest or weed control at 100 ppm ([1]; 72 h, High volume application, 3 Day Curative, read-out: SEPTTR 3DC disease control) [%] | pest or weed control at 100 ppm ([2]; 24 h, High volume application, 1 Day Protectant, read-out: PUCCRT 1DP disease control) [%] | pest or weed control at 100 ppm ([2]; 72 h, High volume application, 3 Day Curative, read-out: PUCCRT 3DC disease control) [%] | pest or weed control at 100 ppm [1, 3] [%] | pest or weed control at 100 ppm [1, 4] [%] | pest or weed control at 100 ppm [2, 5] [%] | pest or weed control at 100 ppm [2, 6] [%] | pest or weed control at 121.5 g/ha [1, 7] [%] | pest or weed control at 121.5 g/ha [1, 8] [%] | pest or weed control at 121.5 g/ha [2, 9] [%] | pest or weed control at 121.5 g/ha [2, 10] [%]
1 | COc1ccnc(C(=O)N[C@H]2CCC[C@H](OCCCc3ccccc3)[C@@H](OC3CCCC3)[C@H](C)OC2=O)c1OCOC(C)=O [F225] | 80 to 100 | 80 to 100 | 80 to 100 | 80 to 100 |  |  |  |  |  |  |  | 
2 | COc1ccnc(C(=O)N[C@H]2CCC[C@H](Oc3ccccc3)[C@@H](OC(=O)C3CCCC3)[C@H](C)OC2=O)c1O [F232] |  |  |  |  | 80 to 100 | 0 to 80 | 80 to 100 | 80 to 100 |  |  |  | 
3 | COc1ccnc(C(=O)N[C@H]2CCC[C@H](Oc3ccccc3)[C@@H](OC(=O)C3CCCC3)[C@H](C)OC2=O)c1OCOC(C)=O [F233] |  |  |  |  | 80 to 100 | 80 to 100 | 80 to 100 | 80 to 100 | 80 to 100 | 80 to 100 | 80 to 100 | 0 to 80
4 | COc1ccnc(C(=O)N[C@H]2CCC[C@H](Oc3ccccc3)[C@@H](OC(=O)C3CCCC3)[C@H](C)OC2=O)c1OCOC(=O)C(C)C [F234] |  |  |  |  | 80 to 100 | 80 to 100 | 80 to 100 | 80 to 100 | 80 to 100 | < 0 | 80 to 100 | < 0
5 | COc1ccnc(C(=O)N[C@H]2CCC[C@H](Oc3ccccc3)[C@@H](OC(=O)C3CCCC3)[C@H](C)OC2=O)c1OC(C)=O [F235] |  |  |  |  | 80 to 100 | 80 to 100 | 80 to 100 | 80 to 100 | 80 to 100 | 0 to 80 | 80 to 100 | 0 to 80
6 | COc1ccnc(C(=O)N[C@H]2CCC[C@H](Oc3ccccc3)[C@@H](OC(=O)C3CCCC3)[C@H](C)OC2=O)c1OC(=O)C1CC1 [F236] |  |  |  |  | 0 to 80 | 0 to 80 | 80 to 100 | 0 to 80 | 80 to 100 | 0 to 80 | 0 to 80 | < 0
7 | COc1ccnc(C(=O)N[C@H]2CCC[C@H](Oc3ccccc3)[C@@H](OC(=O)C3CC3)[C@H](C)OC2=O)c1O [F239] |  |  |  |  | < 0 | 0 to 80 | 0 to 80 | < 0 |  |  |  | 
8 | COc1ccnc(C(=O)N[C@H]2CCC[C@H](Oc3ccccc3)[C@@H](OC(=O)C3CC3)[C@H](C)OC2=O)c1OCOC(C)=O [F240] |  |  |  |  | 80 to 100 | 80 to 100 | 80 to 100 | 80 to 100 | 80 to 100 | 80 to 100 | 80 to 100 | 80 to 100
9 | C=C(C)CO[C@H]1CCC[C@H](NC(=O)c2nccc(OC)c2O)C(=O)O[C@@H](C)[C@@H]1OC [F245] |  |  |  |  | 0 to 80 | 80 to 100 | 80 to 100 | 0 to 80 |  |  |  | 
10 | COc1ccnc(C(=O)N[C@H]2CCC[C@H](OCC(C)C)[C@@H](OC)[C@H](C)OC2=O)c1O [F247] |  |  |  |  | 80 to 100 | 0 to 80 | 80 to 100 | 80 to 100 |  |  |  | 
11 | COc1ccnc(C(=O)N[C@H]2CCC[C@H](Oc3ccccc3)[C@@H](OC)[C@H](C)OC2=O)c1O [F249] |  |  |  |  | 0 to 80 | 0 to 80 | 80 to 100 | 80 to 100 |  |  |  | 
12 | C=C(C)CO[C@H]1CCC[C@H](NC(=O)c2nccc(OC)c2OC(C)=O)C(=O)O[C@@H](C)[C@@H]1OC [F256] |  |  |  |  |  |  |  |  | < 0 | 0 to 80 | 0 to 80 | 80 to 100
13 | COc1ccnc(C(=O)N[C@H]2CCC[C@H](OCC(C)C)[C@@H](OC)[C@H](C)OC2=O)c1OC(C)=O [F257] |  |  |  |  |  |  |  |  | 80 to 100 | 80 to 100 | 80 to 100 | 80 to 100
14 | COc1ccnc(C(=O)N[C@H]2CCC[C@H](Oc3ccccc3)[C@@H](OC)[C@H](C)OC2=O)c1OC(C)=O [F258] |  |  |  |  |  |  |  |  | 0 to 80 | 0 to 80 | 80 to 100 | 80 to 100
15 | COCCC(=O)Oc1c(OC)ccnc1C(=O)N[C@H]1CCC[C@H](OCC(C)C)[C@@H](OC)[C@H](C)OC1=O [F259] |  |  |  |  |  |  |  |  | < 0 | 80 to 100 | 80 to 100 | 80 to 100
16 | COCCC(=O)Oc1c(OC)ccnc1C(=O)N[C@H]1CCC[C@H](Oc2ccccc2)[C@@H](OC)[C@H](C)OC1=O [F260] |  |  |  |  |  |  |  |  | 0 to 80 | 80 to 100 | 80 to 100 | 80 to 100
17 | CCCO[C@H]1CCC[C@H](NC(=O)c2nccc(OC)c2O)C(=O)O[C@@H](C)[C@@H]1Oc1ccc(F)cc1 [F262] |  |  |  |  | 80 to 100 | 80 to 100 | 0 to 80 | 80 to 100 |  |  |  | 
18 | CCCO[C@H]1[C@H](C)OC(=O)[C@@H](NC(=O)c2nccc(OC)c2O)CCC[C@@H]1Oc1ccc(F)cc1 [F264] |  |  |  |  | 80 to 100 | 0 to 80 | 0 to 80 | 80 to 100 |  |  |  | 
19 | CCCO[C@H]1CCC[C@H](NC(=O)c2nccc(OC)c2OCOC(C)=O)C(=O)O[C@@H](C)[C@@H]1Oc1ccc(F)cc1 [F265] |  |  |  |  | 80 to 100 | 80 to 100 | 80 to 100 | 80 to 100 | 80 to 100 |  | 80 to 100 | 0 to 80
20 | CCCO[C@H]1CCC[C@H](NC(=O)c2nccc(OC)c2OC(C)=O)C(=O)O[C@@H](C)[C@@H]1Oc1ccc(F)cc1 [F266] |  |  |  |  |  |  |  |  | 80 to 100 |  | 80 to 100 | 80 to 100
21 | CCCO[C@H]1[C@H](C)OC(=O)[C@@H](NC(=O)c2nccc(OC)c2OCOC(C)=O)CCC[C@@H]1Oc1ccc(F)cc1 [F267] |  |  |  |  | 80 to 100 | 80 to 100 | 80 to 100 | 80 to 100 |  |  |  | 
22 | CCCO[C@H]1CCC[C@H](NC(=O)c2nccc(OC)c2O)C(=O)O[C@@H](C)[C@@H]1Oc1ccc(OC)cc1 [F270] |  |  |  |  | 80 to 100 | 0 to 80 | 80 to 100 | 80 to 100 |  |  |  | 
23 | CCCO[C@H]1CCC[C@H](NC(=O)c2nccc(OC)c2O)C(=O)O[C@@H](C)[C@@H]1Oc1cccc(F)c1 [F271] |  |  |  |  | 80 to 100 | 80 to 100 | 80 to 100 | 80 to 100 |  |  |  | 
24 | CCCO[C@H]1CCC[C@H](NC(=O)c2nccc(OC)c2O)C(=O)O[C@@H](C)[C@@H]1Oc1cccc(Cl)c1 [F272] |  |  |  |  | 80 to 100 | 80 to 100 | 80 to 100 | 80 to 100 |  |  |  | 
25 | CCCO[C@H]1CCC[C@H](NC(=O)c2nccc(OC)c2O)C(=O)O[C@@H](C)[C@@H]1Oc1ccc(Br)cc1 [F273] |  |  |  |  | 80 to 100 | 0 to 80 | 80 to 100 | 80 to 100 |  |  |  | 
26 | CCCO[C@H]1CCC[C@H](NC(=O)c2nccc(OC)c2OC(C)=O)C(=O)O[C@@H](C)[C@@H]1Oc1ccc(OC)cc1 [F274] |  |  |  |  | 80 to 100 | 80 to 100 | 80 to 100 | 80 to 100 | 80 to 100 | 80 to 100 | 80 to 100 | 0 to 80
27 | CCCO[C@H]1CCC[C@H](NC(=O)c2nccc(OC)c2OC(C)=O)C(=O)O[C@@H](C)[C@@H]1Oc1cccc(F)c1 [F275] |  |  |  |  | 80 to 100 | 80 to 100 | 80 to 100 | 80 to 100 | 80 to 100 | 80 to 100 | 80 to 100 | 80 to 100
